Laboratory results from paper PMC7582770, “Synthesis of “All-Cis” Trihydroxypiperidines from a Carbohydrate-Derived Ketone: Hints for the Design of New β-Gal and GCase Inhibitors” (Molecules, 2020).

What was measured:
Test in all cases: Commercial glycosidase screening
[1] = target: T1, α-L-fucosidase EC 3.2.1.51 (Homo sapiens, UniProt P04066); type: biochemical; settings: 0.1 mM inhibitor
T1 construct: purchased Sigma-Aldrich or Megazyme Ltd
T1 sequence (P04066 32-466): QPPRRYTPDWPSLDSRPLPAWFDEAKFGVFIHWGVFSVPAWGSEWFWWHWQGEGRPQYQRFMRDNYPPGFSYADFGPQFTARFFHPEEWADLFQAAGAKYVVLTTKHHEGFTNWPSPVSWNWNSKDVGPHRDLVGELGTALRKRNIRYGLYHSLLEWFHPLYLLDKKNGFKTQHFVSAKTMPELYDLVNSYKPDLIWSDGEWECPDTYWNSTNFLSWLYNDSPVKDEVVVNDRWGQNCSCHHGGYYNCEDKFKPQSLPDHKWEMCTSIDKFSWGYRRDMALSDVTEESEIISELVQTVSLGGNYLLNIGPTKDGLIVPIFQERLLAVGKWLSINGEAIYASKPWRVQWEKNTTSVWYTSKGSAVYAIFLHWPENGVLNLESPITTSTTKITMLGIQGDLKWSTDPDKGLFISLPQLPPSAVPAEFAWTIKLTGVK
From the text: (§1) A panel of 12 commercial glycosidases (α-L-fucosidase EC 3.2.1.51 from Homo sapiens, α-galactosidase EC 3.2.1.22 from coffee beans, β-galactosidases EC 3.2.1.23 from Escherichia coli and Aspergillus oryzae, α-glucosidases EC 3.2.1.20 from yeast and rice, amyloglucosidase EC 3.2.1.3 from Aspergillus niger, β-glucosidase EC 3.2.1.21 from almonds, α-mannosidase EC 3.2.1.24 from Jack beans, β-mannosidase EC 3.2.1.25 from snail, β-N-acetylglucosaminidases EC 3.2.1.52 from Jack beans and bovine kidney) purchased from Sigma-Aldrich (St. Louis, MO, USA) or Megazyme Ltd. (Bray, Co. Wicklow, Ireland) was screened.
(§2) The percentage (%) of inhibition towards the corresponding glycosidase was determined in quadruplicate in the presence of 100 μM of the inhibitor on the well. Each enzymatic assay (final volume 0.12 mL) contains 0.01–0.5 units/mL of the enzyme (with previous calibration) and 4.2 mM aqueous solution of the appropriate p-nitrophenyl glycopyranoside (substrate) buffered to the optimal pH of the enzyme. Enzyme and inhibitor were preincubated for 5 min at room temperature, and the reaction started by addition of the substrate. After 20 min of incubation at 37 °C, the reaction was stopped by the addition of 0.1 mL of sodium borate solution (pH 9.8). The p-nitrophenolate formed was measured by visible absorption spectroscopy at 405 nm (Asys Expert 96 spectrophotometer, Biochrom Ltd., Cambridge, England). Under these conditions, the p-nitrophenolate released led to optical densities linear with both reaction time and concentration of the enzyme (for more details, see the Supplementary Materials). The IC50 value (concentration of inhibitor required for 50% inhibition of enzyme activity) was determined from plots of % inhibition vs. different inhibitor concentrations. Each point of the graph is the average of four measures. The standard deviation for each point has been also represented in the graph.

[2] = target: T2, α-galactosidase EC 3.2.1.22 (Coffea arabica, UniProt Q42656); type: biochemical; settings: 0.1 mM inhibitor; read-out: % Inhibition at 0.1 mM, α-galactosidase coffee beans
T2 construct: purchased Sigma-Aldrich or Megazyme Ltd
T2 sequence (Q42656 16-378): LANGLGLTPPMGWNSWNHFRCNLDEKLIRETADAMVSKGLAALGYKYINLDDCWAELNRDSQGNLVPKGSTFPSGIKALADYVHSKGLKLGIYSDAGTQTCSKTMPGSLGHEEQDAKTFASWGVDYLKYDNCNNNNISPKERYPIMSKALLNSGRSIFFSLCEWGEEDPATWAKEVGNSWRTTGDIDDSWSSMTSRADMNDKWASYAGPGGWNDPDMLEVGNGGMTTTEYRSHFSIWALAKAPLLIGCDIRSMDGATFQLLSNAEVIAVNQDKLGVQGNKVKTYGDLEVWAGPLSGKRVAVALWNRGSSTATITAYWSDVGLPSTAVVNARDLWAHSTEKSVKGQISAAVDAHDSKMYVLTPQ
From the text: as §1, §2

[3] = target: T3, α-mannosidase EC 3.2.1.24 (Canavalia ensiformis, UniProt C0HJB3); type: biochemical; settings: 0.1 mM inhibitor; read-out: % Inhibition at 0.1 mM, α-mannosidase Jack beans
T3 construct: purchased Sigma-Aldrich or Megazyme Ltd
T3 sequence (C0HJB3 1-981): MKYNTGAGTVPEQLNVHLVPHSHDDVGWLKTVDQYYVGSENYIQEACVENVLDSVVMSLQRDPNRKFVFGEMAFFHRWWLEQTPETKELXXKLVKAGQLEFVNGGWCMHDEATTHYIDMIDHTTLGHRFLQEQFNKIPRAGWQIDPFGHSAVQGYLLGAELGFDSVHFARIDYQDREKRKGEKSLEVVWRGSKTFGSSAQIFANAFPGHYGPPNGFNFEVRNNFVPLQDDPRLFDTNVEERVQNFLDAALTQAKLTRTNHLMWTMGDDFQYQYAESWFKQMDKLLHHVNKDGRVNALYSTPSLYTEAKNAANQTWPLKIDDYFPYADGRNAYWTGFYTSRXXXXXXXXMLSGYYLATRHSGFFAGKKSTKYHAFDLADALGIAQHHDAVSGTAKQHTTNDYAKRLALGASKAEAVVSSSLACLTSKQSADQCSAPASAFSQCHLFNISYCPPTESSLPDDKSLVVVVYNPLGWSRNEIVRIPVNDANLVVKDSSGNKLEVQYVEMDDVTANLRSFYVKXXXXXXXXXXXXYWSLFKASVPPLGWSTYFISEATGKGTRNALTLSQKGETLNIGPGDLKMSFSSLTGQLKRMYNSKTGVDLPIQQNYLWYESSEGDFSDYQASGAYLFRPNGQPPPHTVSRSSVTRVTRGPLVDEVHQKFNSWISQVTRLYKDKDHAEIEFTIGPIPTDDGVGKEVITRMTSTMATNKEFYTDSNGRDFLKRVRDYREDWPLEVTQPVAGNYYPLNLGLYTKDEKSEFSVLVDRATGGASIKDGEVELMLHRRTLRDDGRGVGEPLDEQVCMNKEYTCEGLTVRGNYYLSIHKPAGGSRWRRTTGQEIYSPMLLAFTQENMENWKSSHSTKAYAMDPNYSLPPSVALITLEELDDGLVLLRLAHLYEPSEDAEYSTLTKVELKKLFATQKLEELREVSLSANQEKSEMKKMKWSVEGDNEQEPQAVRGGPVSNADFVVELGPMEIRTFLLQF
From the text: as §1, §2

[4] = target: T4, β-galactosidase EC 3.2.1.23 (Aspergillus oryzae, UniProt Q2UCU3); type: biochemical; settings: 0.1 mM inhibitor
T4 construct: purchased Sigma-Aldrich or Megazyme Ltd
T4 sequence (Q2UCU3 19-1005): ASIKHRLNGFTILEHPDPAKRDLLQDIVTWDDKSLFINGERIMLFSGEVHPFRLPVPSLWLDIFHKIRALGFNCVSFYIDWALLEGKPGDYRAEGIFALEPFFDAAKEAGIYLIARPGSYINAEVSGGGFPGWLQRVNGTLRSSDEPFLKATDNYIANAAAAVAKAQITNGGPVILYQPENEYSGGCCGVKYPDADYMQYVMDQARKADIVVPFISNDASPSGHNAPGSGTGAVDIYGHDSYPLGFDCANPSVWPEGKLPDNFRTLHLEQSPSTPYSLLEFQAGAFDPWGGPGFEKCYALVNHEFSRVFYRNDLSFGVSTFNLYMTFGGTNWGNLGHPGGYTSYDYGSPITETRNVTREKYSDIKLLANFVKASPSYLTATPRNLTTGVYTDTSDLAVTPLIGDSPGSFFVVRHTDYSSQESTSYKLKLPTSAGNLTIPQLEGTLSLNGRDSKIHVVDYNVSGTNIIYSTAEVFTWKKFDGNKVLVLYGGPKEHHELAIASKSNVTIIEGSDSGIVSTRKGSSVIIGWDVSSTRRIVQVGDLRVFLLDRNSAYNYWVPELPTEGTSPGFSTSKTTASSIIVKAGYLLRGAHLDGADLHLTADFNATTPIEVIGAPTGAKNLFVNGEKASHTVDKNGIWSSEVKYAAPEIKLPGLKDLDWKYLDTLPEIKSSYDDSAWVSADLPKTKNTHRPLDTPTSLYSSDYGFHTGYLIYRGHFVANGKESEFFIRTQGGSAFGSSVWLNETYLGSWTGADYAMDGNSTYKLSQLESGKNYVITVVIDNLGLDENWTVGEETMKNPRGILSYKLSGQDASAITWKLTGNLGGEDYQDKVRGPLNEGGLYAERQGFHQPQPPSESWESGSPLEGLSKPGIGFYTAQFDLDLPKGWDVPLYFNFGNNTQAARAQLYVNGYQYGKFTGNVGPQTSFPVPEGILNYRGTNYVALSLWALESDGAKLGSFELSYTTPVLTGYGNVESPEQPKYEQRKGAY
From the text: as §1, §2

[5] = target: T5, β-galactosidase EC 3.2.1.23 (Escherichia coli, UniProt P00722); type: biochemical; settings: read-out: % Inhibition at 0.1 mM, β-galactosidase Escherichia coli
T5 construct: purchased Sigma-Aldrich or Megazyme Ltd
T5 sequence (P00722 2-1024): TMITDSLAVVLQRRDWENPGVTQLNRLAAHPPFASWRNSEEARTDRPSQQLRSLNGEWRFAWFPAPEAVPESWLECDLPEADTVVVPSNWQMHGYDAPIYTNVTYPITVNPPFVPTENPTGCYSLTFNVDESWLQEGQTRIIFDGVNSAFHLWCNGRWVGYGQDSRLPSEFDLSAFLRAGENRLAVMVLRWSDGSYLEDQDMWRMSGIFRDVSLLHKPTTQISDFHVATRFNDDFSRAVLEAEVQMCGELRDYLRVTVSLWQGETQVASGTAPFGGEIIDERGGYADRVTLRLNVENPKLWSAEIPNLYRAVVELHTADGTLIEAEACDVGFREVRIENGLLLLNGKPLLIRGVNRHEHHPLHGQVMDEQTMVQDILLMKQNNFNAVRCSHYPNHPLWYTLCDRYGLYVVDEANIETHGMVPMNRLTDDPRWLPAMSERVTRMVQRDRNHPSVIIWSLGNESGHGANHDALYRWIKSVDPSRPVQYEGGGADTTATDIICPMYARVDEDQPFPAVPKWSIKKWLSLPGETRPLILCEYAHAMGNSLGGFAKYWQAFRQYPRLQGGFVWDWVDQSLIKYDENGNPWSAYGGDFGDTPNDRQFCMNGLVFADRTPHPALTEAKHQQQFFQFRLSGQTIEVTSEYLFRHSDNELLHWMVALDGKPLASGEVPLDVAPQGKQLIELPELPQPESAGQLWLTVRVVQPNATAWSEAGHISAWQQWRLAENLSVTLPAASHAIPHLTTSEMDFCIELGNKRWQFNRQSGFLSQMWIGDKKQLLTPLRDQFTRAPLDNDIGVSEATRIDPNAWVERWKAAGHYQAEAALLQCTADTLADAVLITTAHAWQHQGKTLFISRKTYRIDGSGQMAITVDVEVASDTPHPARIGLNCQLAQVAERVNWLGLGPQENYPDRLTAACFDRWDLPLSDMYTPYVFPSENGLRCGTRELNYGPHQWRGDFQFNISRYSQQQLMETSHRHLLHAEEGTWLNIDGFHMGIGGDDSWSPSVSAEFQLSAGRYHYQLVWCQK
From the text: as §1, §2

[6] = target: T6, amyloglucosidase EC 3.2.1.3 (Aspergillus niger, UniProt P69328); type: biochemical; settings: 0.1 mM inhibitor
T6 construct: purchased Sigma-Aldrich or Megazyme Ltd
T6 sequence (P69328 25-640): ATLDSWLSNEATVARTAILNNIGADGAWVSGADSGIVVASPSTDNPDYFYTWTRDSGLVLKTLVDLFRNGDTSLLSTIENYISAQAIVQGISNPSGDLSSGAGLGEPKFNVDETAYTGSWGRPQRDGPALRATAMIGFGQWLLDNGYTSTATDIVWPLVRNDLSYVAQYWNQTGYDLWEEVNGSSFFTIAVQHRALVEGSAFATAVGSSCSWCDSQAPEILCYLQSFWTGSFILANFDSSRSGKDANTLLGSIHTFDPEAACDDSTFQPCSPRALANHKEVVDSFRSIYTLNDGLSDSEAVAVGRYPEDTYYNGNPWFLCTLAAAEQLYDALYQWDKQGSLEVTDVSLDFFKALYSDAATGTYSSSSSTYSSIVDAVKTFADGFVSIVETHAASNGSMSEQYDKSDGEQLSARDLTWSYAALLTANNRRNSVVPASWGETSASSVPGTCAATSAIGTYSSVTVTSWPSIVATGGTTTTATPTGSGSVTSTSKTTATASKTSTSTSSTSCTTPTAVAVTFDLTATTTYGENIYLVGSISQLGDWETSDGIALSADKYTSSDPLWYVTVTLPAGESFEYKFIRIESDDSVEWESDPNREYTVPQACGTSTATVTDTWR
From the text: as §1, §2

[7] = tested on: β-N-acetylglucosaminidase EC 3.2.1.52; type: biochemical, bovine kidney; settings: 0.1 mM inhibitor
From the text: as §1, §2

[8] = tested on: β-mannosidase EC 3.2.1.25; type: biochemical, snail; settings: 0.1 mM inhibitor
From the text: as §1, §2

[9] = tested on: β-N-acetylglucosaminidase EC 3.2.1.52; type: biochemical, Jack beans; settings: 0.1 mM inhibitor
From the text: as §1, §2

Row | SMILES | inhibition at 100 µM [1] [%] | inhibition at 100 µM [2] [%] | inhibition at 100 µM [3] [%] | inhibition at 100 µM [4] [%] | inhibition at 100 µM [5] [%] | inhibition at 100 µM [6] [%] | % Inhibition at 0.1 mM, β-N-acetylglucosaminidase bovine kidney [7] | % Inhibition at 0.1 mM, β-mannosidase snail [8] | % Inhibition at 0.1 mM, β-N-acetylglucosaminidase Jack beans [9]
1 | CCCCCCCCCCCCN[C@H]1CNC[C@@H](O)[C@H]1O [compound 10, (3R, 4S, 5S)-3,4-Dihydroxy-5-(Dodecylamino) Piperidine] | 0 | 0 | 0 | 0 | 0 | 0 | - (no inhibition detected) | - (no inhibition detected) | - (no inhibition detected)
2 | CCCCCCCC[C@]1(O)CNC[C@@H](O)[C@H]1O [compound 12, (3S, 4R, 5R)-3,4,5-Trihydroxy-3-Octyl-Piperidine] | 0 | 0 | 0 | 0 | 0 | 0 | - (no inhibition detected) | - (no inhibition detected) | - (no inhibition detected)
3 | CCCCCCCCCO[C@@H]1CNC[C@@H](O)[C@H]1O [compound 21, (3R, 4R, 5R)-4,5-Dihydroxy-3-(Nonyloxy) Piperidine] | 0 | 0 | 0 | 0 | 0 | 0 | - (no inhibition detected) | - (no inhibition detected) | - (no inhibition detected)
